Reference: patent US6447794B2, “Stomach-action molluscicides” (priority 1996, dated 2002)

How the values were obtained:
[1] = system: Helix apersa; test: preliminary trials, contact poison on a smooth glass surface; format: in vivo, Helix aspersa
Description: (§1) Subsequent trials compared the effective toxicity of methiocarb, metaldehyde bait pellets and ferric EDTA pellets and ferric EDTA bait powder to Helix aspersa and the effective toxicity of ferric EDTA to Deroceras reticulatum. Limited trials were carried out on Theba pisana (the white Italian snail), Cernuella virgata (the vineyard snail), Limax maximus and Cochlicella spp.

[2] = system: Deroceras reticulatum; test: as above; format: in vivo
Description: as §1

[3] = system: Deroceras reticulatum; details: on wet soil after 10 days; cited from earlier work

SMILES	toxicity as a contact poison [1]	toxicity as a contact poison [2]	toxicity relative to Iron(III) EDTA [3]
O=C([O-])CN(CCN(CC(=O)[O-])CC(=O)[O-])CC(=O)[O-].[Fe+3].[Na+] [ferric EDTA, Ferric sodium EDTA]	toxic	toxic	–
CC(=O)/C=C(/C)[O-].CC(=O)/C=C(/C)[O-].CC(=O)/C=C(/C)[O-].[Fe+3] [Iron(III) 2,4-pentanedionate]	–	–	about twice to three times as toxic
